Results from patent publication US4526989A, “1,4-Bis (substituted-amino)-5,8-dihydroxy-anthraquinones and leuco bases thereof” (priority 1979, dated 1985).

Columns and labels:
[1] = test system: melanotic melanoma B16; assay: Melanotic Melanoma B16 test; format: in vivo, C57BC/6 mice; details: days 1 through 9
Procedure: The animals used are C57BC/6 mice, all of the same sex, weighing a minimum of 17 g. and all within a 3-g. weight range. There are normally 10 animals per test group. A one-gram portion of melanotic melanoma B16 tumor is homogenized in 10 ml. of cold balanced salt solution and a 0.5-ml. aliquot of the homogenate is implanted intraperitoneally into each of the test mice. The test compounds are administered intraperitoneally on days one through 9 (relative to tumor inoculation) at various doses. The animals are weighed and survivors are recorded on a regular basis for 60 days. The median survival time and the ratio of survival time for treated (T)/control (C) animals are calculated. […] The criterion for efficacy is T/C×100≥125%.

[2] = test system: lymphocytic leukemia P388; assay: Lymphocytic leukemia P388 test (intraperitoneal administration); format: in vivo, DBA/2 mice; details: days 1, 5 and 9
In short: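 DBA/2 mice, single sex, 5-6 per group, inoculated i.p. with 10^6 P388 leukemia cells. Compounds given i.p. at various doses on days 1, 5 and 9; survival followed 30 days, reporting median survival time and treated/control (T/C) survival ratio.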

[3] = 25 mg./kg. i.p., efficacy ≥125%
[4] = 50 mg./kg. i.p., efficacy ≥125%
[5] = Mus musculus, P388, ip, 6.2 mg./kg. i.p., efficacy ≥125%, read-out: T/C × 100
[6] = Mus musculus, P388, ip, 12.5 mg./kg. i.p., efficacy ≥125%, read-out: T/C × 100
[7] = Mus musculus, P388, ip, 25 mg./kg. i.p., efficacy ≥125%, read-out: T/C × 100
[8] = Mus musculus, P388, ip, 50 mg./kg. i.p., efficacy ≥125%, read-out: T/C × 100

SMILES	Median Survival Time ([1]; 6 mg./kg. i.p.) [days]	Median Survival Time ([1]; 12 mg./kg. i.p.) [days]	Median Survival Time ([1]; 25 mg./kg. i.p.) [days]	Median Survival Time ([1]; 50 mg./kg. i.p.) [days]	Median Survival Time ([2]; 12.5 mg./kg. i.p.) [days]	Median Survival Time ([2]; 25 mg./kg. i.p.) [days]	Median Survival Time ([2]; 50 mg./kg. i.p.) [days]	Median Survival Time ([2]; 100 mg./kg. i.p.) [days]	Median Survival Time ([2]; 6.2 mg./kg. i.p.) [days]	response vs control in vivo at 6.2 mg/kg [2, 5] [%]	response vs control in vivo at 12.5 mg/kg [2, 6] [%]	response vs control in vivo at 25 mg/kg [2, 7] [%]	response vs control in vivo at 50 mg/kg [2, 8] [%]	also measured
CC(C)NCCNC1=C2C(=O)c3c(O)ccc(O)c3C(=O)C2=C(NCCNC(C)C)CC1 [Leuco-1,4-bis[2-(2-isopropylamino)ethylamino]-5,8-dihydroxyanthraquinone]	25.0	30.0	31.0	6.5	15.0	17.0	19.0	8.0	–	–	–	–	–	T/C × 100 ([1]; 6 mg./kg. i.p., efficacy ≥125%): 151%; T/C × 100 ([1]; 12 mg./kg. i.p., efficacy ≥125%): 182%; T/C × 100 [1, 3]: 188%; T/C × 100 [1, 4]: 39%; T/C × 100 ([2]; 12.5 mg./kg. i.p., efficacy ≥125%): 136%; T/C × 100 [2, 3]: 155%; T/C × 100 [2, 4]: 173%; T/C × 100 ([2]; 100 mg./kg. i.p., efficacy ≥125%): 73%
CNCCNCCNC1=C2C(=O)c3c(O)ccc(O)c3C(=O)C2=C(NCCNCCNC)CC1 [Leuco-1,4-bis[2-(2-methylaminoethylamino)ethylamino]-5,8-dihydroxyanthraquinone]	–	–	35.0	12.5	16.0	21.0	28.0	26.0	15.0	136	145	191	255	Median Survival Time ([1]; 6.2 mg./kg. i.p.): 28.5 days; Median Survival Time ([1]; 12.5 mg./kg. i.p.): 39.5 days; response vs control in vivo at 6.2 mg/kg ([1]; Mus musculus, ip, 6.2 mg./kg. i.p., efficacy ≥125%, read-out: T/C × 100): 168%; response vs control in vivo at 12.5 mg/kg ([1]; Mus musculus, ip, 12.5 mg./kg. i.p., efficacy ≥125%, read-out: T/C × 100): 232%; response vs control in vivo at 25 mg/kg ([1]; Mus musculus, ip, 25 mg./kg. i.p., efficacy ≥125%, read-out: T/C × 100): 206%; response vs control in vivo at 50 mg/kg ([1]; Mus musculus, ip, 50 mg./kg. i.p., efficacy ≥125%, read-out: T/C × 100): 73%; Median Survival Time ([2]; 200 mg./kg. i.p.): 2.0 days; response vs control in vivo at 100 mg/kg ([2]; Mus musculus, P388, ip, 100 mg./kg. i.p., efficacy ≥125%, read-out: T/C × 100): 236%; response vs control in vivo at 200 mg/kg ([2]; Mus musculus, P388, ip, 200 mg./kg. i.p., efficacy ≥125%, read-out: T/C × 100): 18%
CNCCNC1=C2C(=O)c3c(O)ccc(O)c3C(=O)C2=C(NCCNC)CC1 [Leuco-1,4-bis[2-(methylamino)ethylamino]-5,8-dihydroxyanthraquinone]	32.5	28.0	–	–	19.0	19.0	6.0	–	21.0	191	173	173	55	Median Survival Time ([1]; 0.7 mg./kg. i.p.): 27.5 days; Median Survival Time ([1]; 1.5 mg./kg. i.p.): 36.0 days; Median Survival Time ([1]; 3 mg./kg. i.p.): 31.0 days; response vs control in vivo at 0.7 mg/kg ([1]; Mus musculus, ip, 0.7 mg./kg. i.p., efficacy ≥125%, read-out: T/C × 100): 172%; response vs control in vivo at 1.5 mg/kg ([1]; Mus musculus, ip, 1.5 mg./kg. i.p., efficacy ≥125%, read-out: T/C × 100): 225%; response vs control in vivo at 3 mg/kg ([1]; Mus musculus, ip, 3 mg./kg. i.p., efficacy ≥125%, read-out: T/C × 100): 194%; response vs control in vivo at 6 mg/kg ([1]; Mus musculus, ip, 6 mg./kg. i.p., efficacy ≥125%, read-out: T/C × 100): 203%; response vs control in vivo at 12 mg/kg ([1]; Mus musculus, ip, 12 mg./kg. i.p., efficacy ≥125%, read-out: T/C × 100): 175%; Median Survival Time ([2]; 1.5 mg./kg. i.p.): 13.0 days; Median Survival Time ([2]; 3.1 mg./kg. i.p.): 15.0 days; response vs control in vivo at 1.5 mg/kg ([2]; Mus musculus, P388, ip, 1.5 mg./kg. i.p., efficacy ≥125%, read-out: T/C × 100): 118%; response vs control in vivo at 3.1 mg/kg ([2]; Mus musculus, P388, ip, 3.1 mg./kg. i.p., efficacy ≥125%, read-out: T/C × 100): 136%
